From patent US20220168268A1, “SMALL-MOLECULE INHIBITOR OF PD-1/PD-L1, PHARMACEUTICAL COMPOSITION THEREOF WITH PD-L1 ANTIBODY, AND APPLICATION OF SAME” (Guangzhou Maxinovel Pharmaceuticals Co., Ltd., priority 2019, published 2022)
“And” between values parts separate entries of the source, which are not always exact repeats. Identical values can stand only once.

What was measured:
PD-1/PD-L1 = target: T1, PD-1/PD-L1 (Homo sapiens, UniProt Q9NZQ7); assay: Homogeneous Time-Resolved Fluorescence (HTRF) PD-1/PD-L1 binding assay; settings: CisBio kit
T1 construct: unspecified kit tag (tag1 or tag2, recognised by the detection antibodies); purchased CisBio 64CUS000C-1
T1 sequence (Q9NZQ7 19-238 limits assumed): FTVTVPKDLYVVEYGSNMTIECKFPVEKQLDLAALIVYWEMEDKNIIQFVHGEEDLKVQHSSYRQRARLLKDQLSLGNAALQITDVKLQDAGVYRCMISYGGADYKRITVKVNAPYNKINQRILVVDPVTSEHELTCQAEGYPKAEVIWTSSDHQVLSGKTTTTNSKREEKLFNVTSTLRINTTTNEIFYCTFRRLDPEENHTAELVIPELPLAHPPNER
Method: Homogenouse Time-Resolved Fluorescence (HTRF) binding assay was used to determine the binding activity of the compound of the present disclosure to PD-1/PD-L1.
The purchased kit (CisBio, #64CUS000C-1) contained the reagents required for experiments such as PD-1, PD-L1, anti-tagl-Eu, Anti-tag2-XL665, Dilute Buffer and Detection Buffer.
1. The compound was formulated to 10 concentrations with a three-fold concentration gradient with 100% DMSO.
2. The solution of the compound in DMSO was added to Dilute Buffer, and mixed evenly and then transferred to a 96-well plate.
3. PD-L1 was diluted with Dilute Buffer and added to the 96-well plate above.
4. PD-1 was diluted with Dilute Buffer, then added to the 96-well plate above and incubated at room temperature for 30 minutes.
5. One portion of anti-tag1-Eu and one portion of anti-tag2-XL665 were added to Detection Buffer, mixed evenly and transferred to the 96-well plate above.
6. The mixed solution in the 96-well plate were incubated at room temperature for 1 to 24 hours.
7. HTRF values were read by Envision.

[1] = Pharmacokinetic experiment in mice (iv and oral gavage); assay type: in vivo; settings: mouse, whole blood; CD1 male mice; tail vein 2 mg/kg and oral gavage 10 mg/kg
Description: Glipizide (molecular formula was C21H27N5O4S, molecular weight was 445.5 g/mol, Analytical Reagent) purchased from Sigma-Aldrich (U.S.A.), was used as the internal standard for analysis. Methanol, acetonitrile and formic acid (HPLC grade) were purchased from Sigma-Aldrich (U.S.A.), and pure water was purchased from Hangzhou Wahaha Group Co., Ltd. (Hangzhou, China). Other chemical reagents were all analytical reagents.
CD1 male mice, six per group, 6-7 weeks old, 29-31 g, were purchased from LC Laboratory Animal Co. LTD. Before the experiment, the animals should be kept for at least 3 days to adapt to the environment. Throughout the experiment, the animals were required to fast overnight, and allowed to drink water freely during the period, and the surviving animals resumed feeding 4 hours after administration.
1. The compound was formulated into a solution with a concentration of 0.4 mg/mL with 10% DMSO, 10% Solutol HS 15 and 80% Saline.
2. The above prepared solution was administered to 3 mice by tail vein injection (compound dosage was 2 mg/kg), and was administered to another 3 mice by oral gavage (compound dosage was 10 mg/kg) simultaneously.
3. Approximately 30 μL of blood was collected from each of the above 6 mice at 5 minutes, 15 minutes, 30 minutes, 1 hour, 2 hours, 4 hours, 8 hours and 24 hours after administration into the EDTA-K2 anticoagulation tube (set on wet ice), and 20 μL of blood was immediately diluted with 60 μL of water, and then put in the refrigerator at −70° C. for long-term storage until the sample was analyzed.
4. 20 μL of the above solution was transfered into a 96-well deep well sample plate, and 150 μL of glipizide internal standard acetonitrile solution (the concentration was 100 ng/mL) was added, vortexed for 10 min, and centrifuged at […] for 10 min 1 μL of the supernatant was taken for LCMSMS analysis.
5. Based on the drug concentration-time data, WinNonlin 6.4 software (USA) was used to calculate the pharmacokinetic parameters of the compound according to the non-compartment model.

[2] = tested on: colon cancer MC-38-hPD-L1; assay: In vivo pharmacodynamics in hPD-1 knock-in mouse colon cancer MC-38-hPD-L1 model; design: species or system C57BL/6-hPD-1 mice; settings: PO, BID, D19; for Tumor Volume: mean ± SEM
Method: In vivo pharmacodynamics study of PD-L1 antibody Durvalumab and compound 29 used singly or in combination in hPD-1 knock-in mouse colon cancer MC-38-hPD-L1 model
Antibody: PD-L1 antibody Imfinzi (Durvalumab), 120 mg/2.4 mL (50 mg/mL), Lot: 041E17C. Manufacturer: AstraZeneca, purchased from Hong Kong Mingchuang Pharmacy Co., Ltd., stored at 2-8° C.
Experimental animals: Human PD-1 transgenic mice, strain: C57BL/6-hPD-1 mice, 6-8 weeks, weighing 18-21 grams, female, 120 mice, purchased from GemPharmatech Co., Ltd.
Human PD-L1 gene was knocked into MC-38 cells (MC-38-hPD-L1 cells), MC-38 cells was adherent cultured in vitro in DMEM medium with 10% heat-inactivated fetal bovine serum and hygromycinB (final concentration […]) at 37° C. under 5% CO2.
Passage cultivation was conducted three times a week. The cells were collected and counted at the exponential growth phase. 100 μL 1×10^6 MC-38-hPD-L1 cells suspension was inoculated into the right dorsal subcutaneous of C57BL/6-hPD-1 mice. 6 days after inoculation, 60 tumor-bearing mice with transplanted tumor volume ranging from 31.49 mm^3-110.26 mm^3 were selected, the mice were randomly divided into 6 groups, with 10 in each group, according to the experimental plan, and administration was started on the same day.
Preparation of vehicle: 800 mL sterile water was measured and added to volumertic flask. Magnetic stirring was carried out to produce vortex on the liquid surface. An aqueous solution of 10% (w/v) Cremophor RH40+20% (w/v) SBE-β-CD was obtained by slow addition of 100 g Cremophor RH40, followed by 200 g SBE-β-CD, and water to fix the solution volume to 1000 mL with fully stirring.
Preparation of Compound 29 suspension: 150.92 mg compound 29 was weighed and 12.5 […] 10% (w/v) Cremophor RH40+20% (w/v) SBE-β-CD (hereinafter referred to as vehicle) aqueous solution was added. A suspension was with a concentration of 12.0 mg/mL was obtained by fully mixing with vortexing for 2 minutes and ultrasonic treatment for 30 minutes. 5.0 mL of the suspension of compound 29 with a concentration of 12.0 mg/mL was pipetted, and 5.0 mL of vehicle was added to the suspension. The suspension with a concentration of 6.0 mg/mL was obtained by fully mixing with vortexing for 1 minute and ultrasonic treatment for 5 minutes. 2.0 mL of the suspension of compound 29 with a concentration of 12.0 mg/mL was pipetted, and 6.0 mL of vehicle was added to the suspension. The suspension with a concentration of 3.0 mg/mL was obtained by fully mixing with vortexing for 1 minute and ultrasonic treatment for 5 minutes. The suspension of compound 29 was prepared once a day.
Preparation of PD-L1 antibody: […] of Durvalumab stock solution (concentration: 50 mg/mL) was pipetted and divided into 6 portions in 5 mL sterile centrifuge tube, with 6.0 mg in each portion, then the portions were stored in a 4° C. refrigerator for late use. Before administration, 0.12 mL of stock solution (concentration: 50 mg/mL) was pipetted, 2.88 mL of 0.9% sodium chloride solution was added to the stock solution. 3 mL of the solution of Durvalumab with a final concentration 2 mg/mL was obtained by shaking slightly and fully vortexing.
1) The mice in the vehicle control group were weighed and recorded in an electronic balance according to the number. The mice in the vehicle control group were administered by oral gavage with vehicle according to the weight twice a day with a capacity of 0.1 mL/10 g. The time for administration was about 20 s for each mouse, and about 5 minutes in total for each group of 10 mice. 2) The mice in the compound 29 (30 mg/kg) group were weighed and recorded in an electronic balance according to the number. The mice in this group were administered by oral gavage with the prepared Compound 29 suspension according to the weight twice a day with a dosage of 30 mg/kg and a capacity of 0.1 mL/10 g. The time for administration was about 20 s for each mouse, and about 5 minutes in total for each group of 10 mice. […]

- IC50 (PD-1/PD-L1): 19 nM
- bioavailability [1]: 38.2%
Structure (SMILES): Cc1c(/C=C/c2cc(CN[C@@](C)(CO)C(=O)O)ccc2C(F)(F)F)cccc1-c1ccccc1 [Compound 29, (S,E)-2-(3-(2-(2-methylbiphenyl-3-yl)vinyl)-4-(trifluoromethyl)benzylamino)-3-hydroxy-2-methylpropanoic Acid]
- Tumor Volume ([2]; 30 mg/kg): 459.82 ± 58.24/D19 mm^3
- TGI (tumor inhibition rate) ([2]; 30 mg/kg, vs vehicle control): 24.95/D19%
- Tumor Volume ([2]; 60 mg/kg): 439.04 ± 51.23/D19 mm^3
- TGI (tumor inhibition rate) ([2]; 60 mg/kg, vs vehicle control): 29.06/D19%
- Tumor Volume ([2]; 120 mg/kg): 325.23 ± 38.59/D19 mm^3
- TGI (tumor inhibition rate) ([2]; 120 mg/kg, vs vehicle control (max tumor inhibition rate of Compound 29)): 51.21% and 51.21/D19%
